Measurements taken from publication PMC7028811, “Biopharmaceutical Understanding of Excipient Variability on Drug Apparent Solubility Based on Drug Physicochemical Properties: Case Study—Hypromellose (HPMC)” (The AAPS Journal, 2020).
Values after ≈ are worked out from the molar mass of the structure shown. Where two headings read alike, the source gives them in different places. Marks after values point to notes of the source that are not given here.

What was measured:
[1] = cited from earlier work; for Lipophilicity (log P): experimental values; for Solubility (BCS classification): based on the compound's BCS classification
[2] = Relative effect (RE) of HPMC brands on drug apparent solubility, shake-flask with drug/excipient physical mixtures; format: physicochemical; settings: FaSSIF-V2
Procedure: (§1) Compendial media (0.1 N HCl pH 1, phosphate buffer pH 6.8) were prepared according to the method described in the European Pharmacopoeia ([43]). Fasted State Simulated Gastric Fluid (FaSSGF) and Fasted State Simulated Intestinal Fluid (FaSSIF-V2) were prepared as described by Jantratid et al. ([44]).
Drug solubility studies in the absence and presence of excipient were performed in triplicate using the shake-flask method ([45]). Drug excess amount and 2% w/w or 5% w/w of each excipient were weighed and placed in centrifuge tubes. […] The physical mixtures were vortexed for 3 min. Five millilitres of each medium was added in the tubes and the samples were placed in a shaking water bath (37 °C, 200 strokes per minute (spm)). […] Filter adsorption studies were prior performed in triplicate for each drug. […] Filtered samples were further diluted (if needed) with the corresponding medium and analysed by HPLC (Supplementary Table I). Analytical procedures for drug quantification in the samples were modifications of already published methods. Drug quantification was made based on calibration curves. […] As drug solubility can be influenced by the changes in the pH of solutions by presence of dissolved drug ([38]), the pH of samples after the completion of each experiment was measured. Drug solubility was calculated based on the sample drug concentration measured.

[3] = Theoretical % of drug ionized (Henderson-Hasselbalch equation at the pH of each medium); format: physicochemical
[4] = Shake-flask drug solubility in absence of excipient (reference solubility); format: physicochemical; settings: for solubility at 0.5 h: 37 °C, read-out: Solubility of pure drug
Procedure: as §1
Drug solubility studies in the absence and presence of excipient were performed in triplicate using the shake-flask method ([45]). Drug excess amount and 2% w/w or 5% w/w of each excipient were weighed and placed in centrifuge tubes. […] The physical mixtures were vortexed for 3 min. Five millilitres of each medium was added in the tubes and the samples were placed in a shaking water bath (37 °C, 200 strokes per minute (spm)). […] Filter adsorption studies were prior performed in triplicate for each drug. […] Filtered samples were further diluted (if needed) with the corresponding medium and analysed by HPLC (Supplementary Table I). Analytical procedures for drug quantification in the samples were modifications of already published methods. Drug quantification was made based on calibration curves. Standards were formulated from concentrated stock solutions consisting of drug dissolved in MeOH. As drug solubility can be influenced by the changes in the pH of solutions by presence of dissolved drug ([38]), the pH of samples after the completion of each experiment was measured. Drug solubility was calculated based on the sample drug concentration measured.

Row | Structure (SMILES) | Lipophilicity (log P) [1] | Solubility (BCS classification) [1] | pKa [1] | further results
1 | CC(C)Cc1ccc(C(C)C(=O)O)cc1 (centres unmarked) [IBU, Ibuprofen] | 4.00 ([33]) |  |  | 
2 | OCCN(CCO)c1nc(N2CCCCC2)c2nc(N(CCO)CCO)nc(N3CCCCC3)c2n1 [DPL, dipyridamole] |  | Low ([38]) |  | Effect of HPMC presence on drug apparent solubility [2]: did not affect; % of drug ionized ([3]; FaSSIF-V2): 34%; % of drug ionized ([3]; phosphate buffer pH 6.8): 20.1%
3 | CCC(C)n1ncn(-c2ccc(N3CCN(c4ccc(OCC5COC(Cn6cncn6)(c6ccc(Cl)cc6Cl)O5)cc4)CC3)cc2)c1=O (centres unmarked) [ITZ, itraconazole] | 6.20 ([39]) | Low ([40]) | Weak base (pKa=4.5) ([39]) | solubility at 24 h ([4]; aqueous buffer, thermodynamic from solid, Phosphate buffer pH 6.8, 37 °C, mean ± SD, n = 3): < 0.015 µg/mL
4 | NC(=O)N1c2ccccc2C=Cc2ccccc21 [CBZ, carbamazepine] | 2.45 ([29]) | Low ([30]) |  | solubility at 0.5 h ([4]; pH 1.6, fassgf or other biorelevant, thermodynamic from solid, FaSSGF, 0.5 h): 387 µg/mL (≈ 1640 µM); solubility at 0.5 h ([4]; pH 6.5, thermodynamic from solid, FaSSIF-V2, 0.5 h): 307 µg/mL (≈ 1300 µM); Relative effect (RE) on drug apparent solubility ([2]; all the studied HPMC brands, 24 h): approximately 60%; pKa ([1]; ref DrugBank): Neutral (pKa=15)^a
5 | CC(=O)Nc1ccc(O)cc1 [PRC, paracetamol] | 0.20 ([28]) |  | Neutral (pKa=9.38) ([28]) | 
